Key:
[1] = target: T1, Nuclear receptor subfamily 1 group I member 2 (Homo sapiens, UniProt O75469); test: Transactivation of PXR (unknown origin) expressed in human HepG2 cells; type: cell-based
T1 sequence (O75469 whole entry): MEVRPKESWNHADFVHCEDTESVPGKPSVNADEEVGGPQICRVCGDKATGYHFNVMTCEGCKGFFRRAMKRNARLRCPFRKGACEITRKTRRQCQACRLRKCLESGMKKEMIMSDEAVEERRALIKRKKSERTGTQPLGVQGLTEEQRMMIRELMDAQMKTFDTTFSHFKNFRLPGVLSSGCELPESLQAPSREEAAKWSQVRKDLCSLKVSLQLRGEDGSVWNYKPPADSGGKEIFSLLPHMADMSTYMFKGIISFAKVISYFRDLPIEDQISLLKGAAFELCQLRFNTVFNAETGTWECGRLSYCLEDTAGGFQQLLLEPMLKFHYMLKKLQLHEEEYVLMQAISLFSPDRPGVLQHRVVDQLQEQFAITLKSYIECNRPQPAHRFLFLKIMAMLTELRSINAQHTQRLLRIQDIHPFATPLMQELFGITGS

[2] = target: T2, Oxysterols receptor LXR-alpha (Homo sapiens, UniProt Q13133); test: Transactivation of human GAL4-fused LXRalpha expressed in African green monkey CV1 cells; type: cell-based
T2 sequence (Q13133 whole entry): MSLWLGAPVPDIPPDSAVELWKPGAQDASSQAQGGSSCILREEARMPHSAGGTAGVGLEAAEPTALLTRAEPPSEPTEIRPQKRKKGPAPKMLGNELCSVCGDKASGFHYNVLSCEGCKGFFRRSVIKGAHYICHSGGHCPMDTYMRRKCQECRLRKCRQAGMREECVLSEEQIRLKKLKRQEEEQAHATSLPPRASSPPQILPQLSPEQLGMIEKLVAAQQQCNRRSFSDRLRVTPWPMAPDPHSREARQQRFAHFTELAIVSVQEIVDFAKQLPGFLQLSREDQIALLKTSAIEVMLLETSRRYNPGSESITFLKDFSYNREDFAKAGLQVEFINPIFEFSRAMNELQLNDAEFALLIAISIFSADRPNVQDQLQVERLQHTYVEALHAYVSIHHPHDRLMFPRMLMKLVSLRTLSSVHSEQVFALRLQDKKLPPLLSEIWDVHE

[3] = target: T3, Nuclear receptor ROR-alpha (Homo sapiens, UniProt P35398); test: Inverse agonist activity at human Gal4-fused RORalpha LBD (272 to 556 residues) expressed in human Jurkat cells measured after 18 hrs by steady-glo luciferase reporter gene assay; type: cell-based
T3 sequence (P35398 whole entry): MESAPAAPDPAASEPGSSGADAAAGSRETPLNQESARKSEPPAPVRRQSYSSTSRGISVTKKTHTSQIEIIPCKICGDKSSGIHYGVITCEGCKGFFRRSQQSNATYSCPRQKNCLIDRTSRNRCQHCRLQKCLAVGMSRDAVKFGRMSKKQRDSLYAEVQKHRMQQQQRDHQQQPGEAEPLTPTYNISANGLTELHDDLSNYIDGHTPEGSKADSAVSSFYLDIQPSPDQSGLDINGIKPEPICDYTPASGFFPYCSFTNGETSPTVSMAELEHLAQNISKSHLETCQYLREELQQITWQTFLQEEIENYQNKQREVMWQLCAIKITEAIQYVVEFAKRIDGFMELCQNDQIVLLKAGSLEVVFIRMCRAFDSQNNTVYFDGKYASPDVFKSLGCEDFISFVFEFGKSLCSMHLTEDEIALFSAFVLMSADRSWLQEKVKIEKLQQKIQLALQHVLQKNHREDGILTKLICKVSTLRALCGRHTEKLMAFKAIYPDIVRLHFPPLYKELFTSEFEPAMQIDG

[4] = target: T4, Oxysterols receptor LXR-beta (Homo sapiens, UniProt P55055); test: Transactivation of human GAL4-fused LXRbeta expressed in African green monkey CV1 cells; type: cell-based
T4 sequence (P55055 whole entry): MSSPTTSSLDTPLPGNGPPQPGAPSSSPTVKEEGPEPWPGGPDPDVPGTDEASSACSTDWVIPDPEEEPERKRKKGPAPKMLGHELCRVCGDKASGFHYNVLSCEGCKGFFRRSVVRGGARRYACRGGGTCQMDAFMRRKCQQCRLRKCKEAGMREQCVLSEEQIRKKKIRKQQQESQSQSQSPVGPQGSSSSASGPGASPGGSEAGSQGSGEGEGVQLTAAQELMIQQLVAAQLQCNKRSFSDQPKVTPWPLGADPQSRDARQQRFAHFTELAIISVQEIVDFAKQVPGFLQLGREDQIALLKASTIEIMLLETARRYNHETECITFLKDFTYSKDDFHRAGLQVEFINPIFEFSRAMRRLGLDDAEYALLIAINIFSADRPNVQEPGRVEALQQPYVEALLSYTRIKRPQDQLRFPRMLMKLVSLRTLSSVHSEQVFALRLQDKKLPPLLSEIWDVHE

[5] = Stability in mouse liver microsomes assessed as parent compound remaining after 10 mins; type: ADME, Microsome; settings: for remaining at 10 min: liver microsomes, read-out: Stability; for Stability: microsomes, 10 min
PXR = target: T5, PXR (Homo sapiens, UniProt O75469); test: (§1) Transactivation of PXR (unknown origin) expressed in human HepG2 cells assessed as maximum receptor activation response relative to control; type: cell-based; settings: human HepG2 cells that express PXR, read-out: %max
T5 sequence (O75469 whole entry): T1 sequence (O75469 whole entry)

[6] = target: T6, Nuclear receptor ROR-beta (Homo sapiens, UniProt Q92753); test: Inverse agonist activity at human Gal4-fused RORbeta LBD (200 to 559 residues) expressed in human Jurkat cells measured after 18 hrs by steady-glo luciferase reporter gene assay; type: cell-based
T6 sequence (Q92753 whole entry): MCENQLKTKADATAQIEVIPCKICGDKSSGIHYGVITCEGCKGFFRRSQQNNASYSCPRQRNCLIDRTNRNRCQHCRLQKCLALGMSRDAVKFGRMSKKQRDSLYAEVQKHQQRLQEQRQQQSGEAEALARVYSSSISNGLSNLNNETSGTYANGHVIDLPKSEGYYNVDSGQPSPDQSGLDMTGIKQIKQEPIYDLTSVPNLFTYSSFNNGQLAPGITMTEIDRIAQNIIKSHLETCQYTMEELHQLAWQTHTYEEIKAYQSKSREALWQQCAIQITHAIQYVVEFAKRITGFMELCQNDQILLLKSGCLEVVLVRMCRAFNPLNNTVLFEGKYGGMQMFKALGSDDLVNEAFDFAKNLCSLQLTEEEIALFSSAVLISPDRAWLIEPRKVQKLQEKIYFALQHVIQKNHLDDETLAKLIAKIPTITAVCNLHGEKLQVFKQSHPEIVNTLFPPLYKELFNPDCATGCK

[7] = Stability in human liver microsomes assessed as parent compound remaining after 10 mins; type: ADME, Microsome; settings: for remaining at 10 min: liver microsomes, read-out: Stability; for Stability: microsomes, 10 min
[8] = target: T1, Nuclear receptor subfamily 1 group I member 2; test: as §1; type: cell-based; settings: hepg2

O=C([C@H]1CC[C@H](c2nnn[nH]2)CC1)N1CC[C@](c2ccc(C(F)(C(F)(F)F)C(F)(F)F)cc2)(S(=O)(=O)c2ccc(F)cc2)C1
EC50 [1]: > 50 µM
EC50 [2]: > 7.5 µM
EC50 [3]: > 40 µM
EC50 [4]: > 7.5 µM
remaining at 10 min [5]: 73%
Emax (PXR): 11%
EC50 [6]: > 40 µM
remaining at 10 min [7]: 100%

O=C(O)C1CCC(O)(C(=O)N2CC[C@](c3ccc(C(F)(C(F)(F)F)C(F)(F)F)cc3)(S(=O)(=O)c3ccc(F)cc3)C2)CC1 (stereo in doubt; 12)
EC50 [1]: > 50 µM
EC50 [2]: > 7.5 µM
EC50 [3]: > 40 µM
EC50 [4]: > 7.5 µM
remaining at 10 min [5]: 99%
%max [8]: 9%
EC50 [6]: > 40 µM
remaining at 10 min [7]: 100%

O=C(O)C1CCC(O)(C(=O)N2CC[C@](c3ccc(C(F)(C(F)(F)F)C(F)(F)F)cc3)(S(=O)(=O)c3ccc(F)cc3)C2)CC1 (stereo in doubt; 13)
EC50 ([1]; hepg2): > 50 µM
EC50 [2]: > 7.5 µM
EC50 ([3]; jurkat): > 40 µM
EC50 [4]: > 7.5 µM
Stability [5]: 98%
%max [8]: 19%
EC50 ([6]; jurkat): > 40 µM
Stability [7]: 95%

O=C1NC(=O)C2(CCC(C(=O)N3CC[C@](c4ccc(C(F)(C(F)(F)F)C(F)(F)F)cc4)(S(=O)(=O)c4ccc(F)cc4)C3)CC2)N1 (stereo in doubt; 24)
EC50 [1]: > 14 µM
EC50 [2]: > 7.5 µM
EC50 [3]: > 40 µM
EC50 [4]: > 7.5 µM
remaining at 10 min [5]: 81%
%max [8]: 28%
EC50 [6]: > 40 µM
remaining at 10 min [7]: 84%

O=C1NC(=O)C2(CCC(C(=O)N3CC[C@](c4ccc(C(F)(C(F)(F)F)C(F)(F)F)cc4)(S(=O)(=O)c4ccc(F)cc4)C3)CC2)N1 (stereo in doubt; 25)
EC50 [1]: > 50 µM
EC50 [2]: > 7.5 µM
EC50 ([3]; jurkat): > 40 µM
EC50 [4]: > 7.5 µM
Stability [5]: 82%
%max [8]: 3%
EC50 ([6]; jurkat): > 40 µM
Stability [7]: 93%

CS(=O)(=O)C1CCC(C(=O)N2CC[C@](c3ccc(C(F)(C(F)(F)F)C(F)(F)F)cc3)(S(=O)(=O)c3ccc(F)cc3)C2)CC1 (stereo in doubt; 29)
EC50 [1]: > 50 µM
EC50 [2]: > 7.5 µM
EC50 ([3]; jurkat): > 40 µM
EC50 [4]: > 7.5 µM
%max [8]: 6%
EC50 ([6]; jurkat): > 40 µM
Stability [7]: 100%

O=C(C1CCS(=O)(=O)C1)N1CC[C@](c2ccc(C(F)(C(F)(F)F)C(F)(F)F)cc2)(S(=O)(=O)c2ccc(F)cc2)C1 (stereo in doubt; 32)
EC50 [1]: > 13 µM
EC50 [2]: > 7.5 µM
EC50 [3]: > 40 µM
EC50 [4]: > 7.5 µM
remaining at 10 min [5]: 78%
Emax (PXR): 49%
EC50 [6]: > 40 µM
remaining at 10 min [7]: 100%

O=C(C1CCS(=O)(=O)C1)N1CC[C@](c2ccc(C(F)(C(F)(F)F)C(F)(F)F)cc2)(S(=O)(=O)c2ccc(F)cc2)C1 (stereo in doubt; 33)
EC50 [1]: 7.2 µM
EC50 [2]: > 7.5 µM
EC50 ([3]; jurkat): > 40 µM
EC50 [4]: > 7.5 µM
Stability [5]: 96%
%max [8]: 37%
EC50 ([6]; jurkat): > 40 µM
